Experiments:
Format in all cases: cell-based
[1] = system: Lactobacillus fermentum; assay: Bioethanol fermentation of 33% corn flour dispersion with Saccharomyces cerevisiae contaminated with Lactobacillus fermentum; conditions: for Ethanol / Glucose (residual, non-fermented) / Lactic acid: 72 hours at 32° C., Sc + Lf inoculum, Virg 2 ppm, MSB 20 ppm
Experimental: The capacity of menadione sodium bisulfite to contrast the negative effect of bacterial contamination on the production of bioethanol is tested by using a 33% aqueous dispersion of corn flour, which is a typical substrate used in the bioethanol industry.
Using this dispersion, four parts of 40 ml each are prepared and are placed in four separate flasks (procedure described by Bischoff K. M. et al. in Biotechnology and Bioengineering 2009, 103, 117-122).
Flask 1 (witness) receives the addition of 0.5 ml of inoculum (Sc) of Saccharomyces cerevisiae (1×10^7 ufc/ml). Flask 2 receives the addition of 0.5 ml of inoculum (Sc) of Saccharomyces and 0.5 ml of inoculum (Lf) of Lactobacillus fermentum (1×10^8 ufc/ml); flask 3 receives the addition of 0.5 ml of inoculum (Sc) of Saccharomyces, 0.5 ml of inoculum (Lf) of Lactobacillus fermentum and 0.5 ml of a solution of virginiamycin with such a titer as to have, in the flask, a concentration of antibiotic equal to 2 mg/l. Flask 4 receives the addition of 0.5 ml of inoculum (Sc) of Saccharomyces, 0.5 ml of inoculum (Lf) of Lactobacillus fermentum and 0.5 ml of a solution of menadione sodium bisulfite (1600 mg/l ) with such a titer as to have in the flask a concentration of MSB equal to 20 ppm by weight.
Then the four flasks are kept under bland agitation and at the temperature of 32° C. for 72 hours. At the end of the incubation period, the four parts are analyzed for their content of ethanol, glucose and lactic acid.

[2] = system: Lactobacillus plantarum; assay: Pasteurized 20% molasses solution inoculated with Lactobacillus plantarum; conditions: 48 hours at 25° C., MSB 50 ppm, MSB-C 100 ppm; for Lactic acid / Ufc/l (bacterial load): virginiamycin 2 mg/l
Experimental: A 20% solution of molasses is pasteurized at 65° C. for 30 minutes. After cooling, five 50-ml parts are formed: of these, one is kept as a control and the remaining four each receive the addition of 1 ml of inoculum (Lp) of Lactobacillus plantarum (1×10^5 ufc/ml). The third part then receives the addition of 2 mg/l of virginiamycin, the fourth part receives the addition of 50 ppm of menadione sodium bisulfite, while the fifth part receives the addition of 100 ppm of a mixture of menadione sodium bisulfite and sodium bisulfite known as MSB-C (composition of mixture: 65% MSB and 35% sodium bisulfite).

[3] = system: Saccharomyces cerevisiae; assay: Growth of Saccharomyces cerevisiae strains in liquid biomass containing menadione
[4] = system: broad spectrum of microorganisms, including yeasts; assay: Biocidal activity in a liquid biomass; conditions: weight of menadione/total weight of the biomass and of the compound
[5] = system: Oenococcus oeni; assay: Pasteurized 30% glycerol solution inoculated with Oenococcus oeni; conditions: 48 hours at 25° C.; Penicillin 10 mg/l, emulsion A 20 mg/l, emulsion B 150 mg/l
Experimental: A 30% solution of glycerol is pasteurized at 65° C. for 30 minutes. After cooling, four 50-ml parts are formed, each of which receives the addition of 1 ml of inoculum (00) of Oenococcus oeni, so as to have a bacterial load of 1×10^5 ufc/l.
The first part is kept as a control; the second part receives the addition of 10 mg/l of Penicillin (Pen); the third part receives the addition of 20 mg/l of an emulsion A of menadione (composition: 50% menadione, 50% ethanol); the fourth part receives the addition of 150 mg/l of an emulsion B of menadione (composition: menadione 10%, ricinoleate 90%).

Row | Compound | Ethanol [1] | Glucose (residual, non-fermented) [1] | Lactic acid [1] | Effect on the bacterial inoculum ([1]; flask 4, MSB 20 ppm) | Effect on growth of the yeast ([1]; flask 4, MSB 20 ppm, Saccharomyces cerevisiae) | Lactic acid [2] | Ufc/l (bacterial load) [2] | Effect on the bacterial inoculum [2] | Menadione concentration that allows growth of all the tested strains ([3]; liquid biomass) | Growth response of Saccharomyces cerevisiae ([3]; menadione concentration between 400 and 500 ppm) | Concentration from which biocidal activity is exhibited [4] | Ufc/l (bacterial load) [5]
1 | CC1(S(=O)(=O)[O-])CC(=O)c2ccccc2C1=O.[Na+] (centres unmarked) [MSB, menadione sodium bisulfite] | 111.3 g/L | 6.2 g/L | 0.5 g/L | able to inhibit the bacterial inoculum | has not harmed the growth of the yeast | 0.40 g/L | <1 × 10^3 Ufc/l | inhibiting completely the bacterial inoculum |  |  |  | 
2 | CC1=CC(=O)c2ccccc2C1=O [menadione, 2-methylnaphthalene-1,4-dione] |  |  |  |  |  |  |  |  | below 400 ppm | varies depending on the tested strains | at least 500 ppm | 
3 | virginiamycin [reference compound] | 108.2 g/L | 6.4 g/L | 0.4 g/L |  |  | 0.15 g/L | <1 × 10^2 Ufc/l |  |  |  |  | 
4 | Penicillin |  |  |  |  |  |  |  |  |  |  |  | <1 × 10^2 Ufc/l
